Results from PubChem BioAssay (NCI).
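Following 48 hours of exposure in 96-well plates, responses at five concentrations were used to interpolate endpoints linearly. TGI: concentration producing complete growth inhibition.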

What was measured:
Test in all cases: inhibition of tumour cell growth, NCI panel, 48 h
[1] = test system: HT29 colon
[2] = test system: KM12 colon
[3] = test system: NCI-H226 lung
[4] = test system: PC-3 prostate
[5] = test system: HOP-92 NSCLC
[6] = test system: DLD-1 colon
[7] = test system: DMS 114 small cell lung
[8] = test system: KM20L2 colon
[9] = test system: LXFL 529 NSCLC
[10] = test system: M19-MEL melanoma
[11] = test system: SNB-78 CNS
[12] = test system: XF 498 CNS
[13] = test system: DMS 273 small cell lung

Structure (SMILES)	TGI [1] [µM]	TGI [2] [µM]	TGI [3] [µM]	TGI [4] [µM]	TGI [5] [µM]	TGI [6] [µM]	TGI [7] [µM]	TGI [8] [µM]	TGI [9] [µM]	TGI [10] [µM]	TGI [11] [µM]	TGI [12] [µM]	TGI [13] [µM]
CCOc1nc2sc3c(c2c(=O)n1CCSSCCn1c(OCC)nc2sc4c(c2c1=O)CCCC4)CCCC3	> 100	> 100	> 100	> 100	–	–	–	–	–	–	–	–	–
COc1cc(OC)nc(-n2c(N)c(C(=O)O)c3ccc([N+](=O)[O-])cc3c2=O)n1	> 100	> 100	> 100	> 100	–	–	–	–	–	–	–	–	–
NC(=O)NC(=O)c1cccc(NC(=O)CCl)c1	7.37	2.43	5.28	11.6	15.2	–	–	–	–	–	–	–	–
COc1nc2c(c(=O)[nH]1)N=C(c1ccc(Cl)cc1)CC(c1ccccc1)N2 (configuration not stated)	> 100	> 100	> 100	> 100	67.9	–	–	–	–	–	–	–	–
COc1cccc(CCn2c(N)c(C#N)c3ccc([N+](=O)[O-])cc3c2=O)c1	> 31.6	> 31.6	> 31.6	> 46.4	> 31.6	–	–	–	–	–	–	–	–
CCOC(=O)/C(=C\c1c(C)[nH]c2ccccc12)P(=O)(OCC)OCC	> 100	> 100	> 100	–	–	–	–	–	–	–	–	–	–
C[C@]12CC[C@H](O)CC1=CC[C@@H]1[C@@H]2CC[C@]2(C)NC(=O)/C(=C\c3ccccc3)C[C@@H]12	31.5	30.3	34.3	29.5	–	–	–	–	–	–	–	–	–
N#Cc1c(N)c2c(c(-c3ccccc3)c1-c1ccccc1)C(=O)N(O)C2=O	–	83.5	62.8	48.1	> 100	–	–	–	–	–	–	–	–
COc1cc(/C=N/n2c(C)n[nH]c2=O)cc(OC)c1OC	> 100	> 100	> 100	> 100	–	–	–	–	–	–	–	–	–
CC(C)=CCOc1ccc(-c2coc3cc4c(c(O)c3c2=O)C=CC(C)(C)O4)cc1	> 100	> 100	> 100	–	–	> 100	> 100	> 100	> 100	> 100	> 100	> 100	–
O=C1NC(N2CCCCC2)=N/C1=C\c1ccco1	> 100	> 100	> 100	> 100	> 100	–	–	–	–	–	–	–	–
CC12CCC(=O)[C@@]1(C)CCCC2O (some centres not stated)	> 100	> 100	> 100	> 100	–	–	–	–	–	–	–	–	–
COC(=O)CNC(=O)CSc1nnc(COc2ccc(Cl)cc2)n1-c1ccccc1	> 100	> 100	> 100	51.2	> 100	–	–	–	–	–	–	–	–
O=C(NC(CCCCN1C(=O)c2ccccc2C1=O)P(=O)(Oc1ccccc1)Oc1ccccc1)OCc1ccccc1 (configuration not stated)	> 100	> 100	> 100	> 100	> 100	–	–	–	–	–	–	–	–
Cc1ccc(S(=O)(=O)NNC(=O)Nc2ccc([N+](=O)[O-])cc2)cc1	> 100	> 100	> 100	> 100	> 100	–	–	–	–	–	–	–	–
COc1cc2c(cc1O)C(=O)O[C@@H]1CC=C3CCN(C)[C@H]3[C@H]21	> 25	> 25	> 25	> 25	–	–	–	–	–	–	–	–	–

Structure (SMILES)	TGI [1] [µM]	TGI [2] [µM]	TGI [3] [µM]	TGI [4] [µM]	TGI [5] [µM]	TGI [6] [µM]	TGI [7] [µM]	TGI [8] [µM]	TGI [9] [µM]	TGI [10] [µM]	TGI [11] [µM]	TGI [12] [µM]	TGI [13] [µM]
COC(=O)c1cc2c(cc1C(=O)OC)[C@@]1(C)CCCC(C)(C)C1CC2 (some centres not stated)	58.2	30.6	33.8	51.1	26.2	–	–	–	–	–	–	–	–
CCCC(C(=O)Nc1cccc2[nH]cnc12)C(=O)OCC (configuration not stated)	> 100	> 100	> 100	> 100	> 100	–	–	–	–	–	–	–	–
CC(=O)OC(C)c1cc2c(s1)C(=O)c1ccsc1C2=O (configuration not stated)	–	0.306	3.79	0.201	1.74	–	–	–	–	–	–	–	–
CCN1C/C(=C\c2ccc(Cl)cc2)c2[nH]c(=O)c(C#N)c(-c3ccc(Cl)cc3)c2C1	> 100	> 100	> 100	> 100	> 100	–	–	–	–	–	–	–	–
N#CC(C#N)=Cn1c(=S)[nH]c2ccc([N+](=O)[O-])cc21	> 100	> 100	> 100	> 100	> 100	–	–	–	–	–	–	–	–
CC(O)C1OC(n2ccc(=O)[nH]c2=O)CC1n1cncn1 (configuration not stated)	> 100	> 100	> 100	–	–	> 100	> 100	> 100	> 100	> 100	–	> 100	> 100
CCOC(=O)c1nc2cc(F)cc(F)c2[nH]c1=O	> 100	> 100	> 100	> 100	> 100	–	–	–	–	–	–	–	–
CC(C)(C)OC(=O)C1/C(=C/CBr)CN1C(=O)OC(C)(C)C (configuration not stated)	> 100	–	–	28.1	31.8	–	–	–	–	–	–	–	–
C=CCN1C(=O)CS/C1=N\NC(=O)CSc1nc2ccccc2c(=O)n1CC	> 100	> 100	> 100	> 100	–	–	–	–	–	–	–	–	–
Oc1cccc2ccc(Br)nc12	> 100	> 100	> 100	> 100	> 100	–	–	–	–	–	–	–	–
COC(=O)/C(C#N)=C/c1cc(C(C)(C)C)c(O)c(C(C)(C)C)c1	12.1	19.9	9.6	6.78	12.4	–	–	–	–	–	–	–	–
O=C1c2c(O)cccc2Cc2cc(CO)cc(O)c21	> 100	–	17.3	4.28	4.21	–	–	–	–	–	–	–	–
CN1CCN(Cc2ccccc2)CC1CC#N (configuration not stated)	> 100	> 100	> 100	–	–	–	–	–	–	–	–	–	–
CC(C)(C)NC(=S)N/N=C/c1ccccn1	> 100	> 100	> 25.9	> 100	89.3	–	–	–	–	–	–	–	–
COc1cc([C@@H]2c3cc4c(cc3[C@@H](NC(=O)NO)[C@H]3COC(=O)[C@H]23)OCO4)cc(OC)c1O	–	–	–	> 100	> 100	–	–	–	–	–	–	–	–
CCC(=O)CCC1=Nc2nnc(CCCCc3nnc4n3C(=O)C(CCC(=O)CC)=N4)n2C1=O	> 100	> 100	> 100	–	> 100	> 100	> 100	> 100	> 100	> 100	–	> 100	> 100
